These results are taken from paper PMC3366916, “Characterization of a Conserved Interaction between DNA Glycosylase and ParA in Mycobacterium smegmatis and M. tuberculosis” (PLoS ONE, 2012).

The target in one test is T1, MtTAG (Rv1210) (Mycobacterium tuberculosis, UniProt O05311).
T1 construct: gene tagA

The target of another test is T2, MsTAG (Ms5082) (Mycolicibacterium smegmatis, UniProt A0R2E4).
T2 construct: gene tag; recombinant, E. coli BL21, pET28a (6xHis) or pGEX-4T-1 (GST)
T2 sequence (A0R2E4 1-209): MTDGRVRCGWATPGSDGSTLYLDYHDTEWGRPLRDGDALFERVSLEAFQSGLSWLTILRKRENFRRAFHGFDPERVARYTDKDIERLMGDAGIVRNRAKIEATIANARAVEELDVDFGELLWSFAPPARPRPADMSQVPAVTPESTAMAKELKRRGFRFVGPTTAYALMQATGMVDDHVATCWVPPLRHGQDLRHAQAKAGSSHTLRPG
Kind of test: malachite green phosphate release ATPase assay. It is filed as biochemical. Conditions: 200 uM ATP, 150 nM protein, 1 mM MgCl2, 50 mM HEPES pH 8.0, 37 C.

Another test has as its target T3, MsParA (Ms6939) (Mycolicibacterium smegmatis, UniProt A0R7J4).
T3 construct: gene MSMEG_6939; recombinant, E. coli BL21, pET28a (6xHis) or pGEX-4T-1 (GST)
T3 sequence (A0R7J4 1-323): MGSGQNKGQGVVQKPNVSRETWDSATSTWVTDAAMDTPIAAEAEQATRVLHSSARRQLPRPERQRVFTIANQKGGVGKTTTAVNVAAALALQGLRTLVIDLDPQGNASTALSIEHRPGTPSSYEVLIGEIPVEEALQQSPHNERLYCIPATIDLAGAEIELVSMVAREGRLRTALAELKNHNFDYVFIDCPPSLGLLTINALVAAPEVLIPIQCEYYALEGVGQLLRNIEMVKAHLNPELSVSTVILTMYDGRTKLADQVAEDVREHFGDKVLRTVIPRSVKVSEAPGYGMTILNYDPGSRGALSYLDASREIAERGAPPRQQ
Kind of test: malachite green phosphate release ATPase assay. It is filed as biochemical. Conditions: 200 uM ATP, 150 nM protein, 1 mM MgCl2, 50 mM HEPES pH 8.0, 37 C.

T1 sequence (O05311 entry or part of it): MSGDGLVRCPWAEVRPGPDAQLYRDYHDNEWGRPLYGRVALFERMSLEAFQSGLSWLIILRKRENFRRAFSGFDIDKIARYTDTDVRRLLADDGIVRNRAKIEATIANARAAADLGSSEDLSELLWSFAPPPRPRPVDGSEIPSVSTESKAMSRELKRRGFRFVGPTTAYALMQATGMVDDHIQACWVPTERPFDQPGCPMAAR

Consider `Nc1ncnc2c1ncn2[C@@H]1O[C@H](COP(=O)(O)OP(=O)(O)OP(=O)(O)O)[C@@H](O)[C@H]1O` [ATP], for which the “malachite green phosphate release ATPase assay” value is “MtTAG had an obvious ATPase activity but Rv1210-K78A, its mutant variant, did not” on MtTAG (Rv1210); “MsTAG was found to have stronger ATPase activity than MsParA under the same conditions” on MsTAG (Ms5082); “verifying that MsParA had ATPase activity (Fig. 5A)” on MsParA (Ms6939).
